The compounds below were run on M. tuberculosis IAR2 mutant (mmpL3 S288T).
Assay type: cell-based, Mycobacterium tuberculosis

In order of rising “MIC for IAR2” value:
1. CO[C@H]1/C=C/O[C@@]2(C)Oc3c(C)c(O)c4c(O)c(c(/C=N/N5CCN(C)CC5)c(O)c4c3C2=O)NC(=O)/C(C)=C\C=C\[C@H](C)[C@H](O)[C@@H](C)[C@@H](O)[C@@H](C)[C@H](OC(C)=O)[C@@H]1C [Rifampin]  0.03125 µg/mL
2. NNC(=O)c1ccncc1 [Isoniazid]  0.04 µg/mL
3. C[C@H]1COc2c(N3CCN(C)CC3)c(F)cc3c(=O)c(C(=O)O)cn1c23 [Levofloxacin]  0.25 µg/mL
4. NCC[C@H](O)C(=O)N[C@@H]1C[C@H](N)[C@@H](O[C@H]2O[C@H](CN)[C@@H](O)[C@H](O)[C@H]2O)[C@H](O)[C@H]1O[C@H]1O[C@H](CO)[C@@H](O)[C@H](N)[C@H]1O [Amikacin]  1 µg/mL
5. CC[C@@H](CO)NCCN[C@@H](CC)CO [Ethambutol]  1 µg/mL
6. Capreomycin  1 µg/mL
7. NC[C@H]1O[C@H](O[C@H]2[C@H](O)[C@@H](O[C@H]3O[C@H](CO)[C@@H](O)[C@H](N)[C@H]3O)[C@H](N)C[C@@H]2N)[C@H](O)[C@@H](O)[C@@H]1O [Kanamycin]  2 µg/mL
8. CC(C)=CCC/C(C)=C/CNCCNC1C2CC3CC(C2)CC1C3 (stereo not shown) [SQ109]  4 µg/mL

In order of falling “Fold change in MIC for IAR2” value:
1. CC(C)=CCC/C(C)=C/CNCCNC1C2CC3CC(C2)CC1C3 (stereo not shown) [SQ109]  16
2. CO[C@H]1/C=C/O[C@@]2(C)Oc3c(C)c(O)c4c(O)c(c(/C=N/N5CCN(C)CC5)c(O)c4c3C2=O)NC(=O)/C(C)=C\C=C\[C@H](C)[C@H](O)[C@@H](C)[C@@H](O)[C@@H](C)[C@H](OC(C)=O)[C@@H]1C [Rifampin]  0.25
